# Laboratory results: patent US11834458B2, “Anti-cancer nuclear hormone receptor-targeting compounds” (Nuvation Bio Inc., priority 2021, dated 2023)
# Where two headings read alike, the source gives them in different places.
# Key:
# T47D cells = assay: Cell viability assay, T47D; assay type: cell-based; details: Homo sapiens, 144 h
# Description: (§1) Cell viability assay: LNCap, 22Rv1, MCF7, MDAMB361, T47D, and IEC6 cells are seeded at a density of 500-2000 cells/well in 96 well plates, and a ‘T0’ (timepoint 0) was included along with the assay plate. The plates are then incubated at 37° C., 5% CO2 in a cell culture incubator overnight. On the next day, the ‘T0’ plate was assayed using CellTiterGlo (Promega, Inc) according to the manufacturer's instructions. The appropriate compounds are diluted in DMSO and added to the assay plate (final DMSO concentration of 0.1-0.2%) on the next day. The assay plates are incubated for 6 days at 37° C., 5% CO2. After the incubation period, the plates are assayed using CellTiterGlo (Promega, Inc) according to the manufacturer's instructions and luminescence was read on the EnVision plate reader. Inhibition of the tested compounds was determined by the following formula: Inhibition rate (%)=(1−(RLU compound−RLU day0)/(RLU control−RLU day0))*100%. GraphPadPrism was used to analyze the data and determine GI50/IC50 values.
# LNCap cells = assay: Cell viability assay, LNCap; assay type: cell-based; details: Homo sapiens, 144 h
# Description: as §1
# IEC6 cells = assay: Cell viability assay, IEC6; assay type: cell-based; details: Rattus norvegicus
# Description: as §1
# 22Rv1 cells = assay: Cell viability assay, 22Rv1; assay type: cell-based; details: Homo sapiens
# Description: as §1
# [1] = biological target: full-length androgen receptor (Homo sapiens (Human), UniProt P10275); assay: AR antagonism assay; assay type: cell-based
# Description: AR antagonism assay: To evaluate AR antagonist activity, test compound was added to the assay plate (top dose 10 μM, 3 fold serial dilution, 10 point dose response). HEK293 cells stably expressing the full-length androgen receptor were seeded at a density of 20,000 cells/well in the assay plate. The assay plate was then incubated at room temperature for 10 minutes and at 37° C., 5% CO2 for 20 minutes. Testosterone was added to the assay plate at 1 nM final concentration and the assay plate incubated at 37° C., 5% CO2 for 20 h. After the incubation period, Steady-glo was added to the assay plate and mixed at room temperature for 20 minutes on an orbital shaker, before reading out on the EnVision plate reader.
# AR = AR (Homo sapiens (Human), UniProt P10275, T878A); assay: AR binding assay
# Description: AR binding assay: To assess AR binding, test compound (top dose 10 μM, 4 fold serial dilution, 8 point dose response) and control (progesterone) were transferred to the assay plate. Cytosol from LnCaP cells was added to the plate, followed by addition of radiolabeled ^3H-R1881 at a final concentration of 1 nM. The plate was sealed, and the reaction was incubated at 300 rpm at 4° C. for 24 hrs. Radioligand absorption buffer (10 mM Tris-HCl, pH 7.4; 1.5 mM EDTA; 1 mM DTT; 0.25% charcoal; 0.0025% dextran) was then added to the plate, mixed, and incubated at 4° C. for 15 minutes. The plate was then centrifuged at 3000 rpm for 30 minutes at 4° C. The supernatant was transferred to the scint-tube and Tri-carb was used for scintillation counting. The data was analyzed using GraphPadPrism v5.0 and binding IC50 was determined as the concentration where 50% inhibition of radioligand binding was observed.
# [2] = T47D, read-out: T47D (GI50, nM)
# [3] = LNCaP, read-out: LNCap (GI50, nM)
# [4] = 144 h, IEC-6 cells, 6 days, CellTiterGlo, read-out: IEC-6 (IC50)
# [5] = 144 h, 22RV1 cells, 6 days, CellTiterGlo, read-out: 22RV1 (GI50)
# [6] = LNCap cells, 6 days, CellTiterGlo, read-out: LNCap (GI50)
# [7] = cytosol from LnCaP cells, 3H-R1881 1 nM, 4° C. 24 hrs, read-out: AR binding
# [8] = IEC-6, 144 h, read-out: IEC-6 (IC50, nM)
# Chain of AR (P10275 whole entry T878A): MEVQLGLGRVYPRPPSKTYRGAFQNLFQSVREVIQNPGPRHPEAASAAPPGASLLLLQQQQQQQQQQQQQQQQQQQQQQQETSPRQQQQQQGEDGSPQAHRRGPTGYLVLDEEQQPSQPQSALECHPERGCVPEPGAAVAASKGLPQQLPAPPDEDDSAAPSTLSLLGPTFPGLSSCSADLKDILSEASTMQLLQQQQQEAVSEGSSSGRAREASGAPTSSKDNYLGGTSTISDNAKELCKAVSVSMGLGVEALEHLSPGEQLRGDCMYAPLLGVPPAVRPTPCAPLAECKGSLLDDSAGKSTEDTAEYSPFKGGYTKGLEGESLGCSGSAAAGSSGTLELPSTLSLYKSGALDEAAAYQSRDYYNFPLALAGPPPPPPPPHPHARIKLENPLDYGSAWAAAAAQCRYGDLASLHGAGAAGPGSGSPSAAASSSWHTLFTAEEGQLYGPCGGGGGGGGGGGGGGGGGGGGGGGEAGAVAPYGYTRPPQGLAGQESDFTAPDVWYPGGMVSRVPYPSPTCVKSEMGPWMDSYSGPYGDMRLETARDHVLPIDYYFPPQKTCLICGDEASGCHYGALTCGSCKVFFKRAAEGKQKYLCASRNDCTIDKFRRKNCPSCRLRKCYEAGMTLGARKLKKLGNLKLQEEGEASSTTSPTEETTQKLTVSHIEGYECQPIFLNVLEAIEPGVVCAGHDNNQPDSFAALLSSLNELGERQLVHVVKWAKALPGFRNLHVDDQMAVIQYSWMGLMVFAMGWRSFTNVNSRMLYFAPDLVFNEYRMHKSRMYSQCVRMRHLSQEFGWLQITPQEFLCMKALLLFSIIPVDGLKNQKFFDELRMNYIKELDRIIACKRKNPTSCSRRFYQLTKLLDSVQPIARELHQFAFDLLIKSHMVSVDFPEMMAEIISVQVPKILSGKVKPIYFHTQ
# Chain of full-length androgen receptor (P10275 whole entry): as the sequence (P10275 whole entry T878A) above, with A878T counted along it
Structure (SMILES),GI50 (T47D cells; [2]),GI50 (LNCap cells; [3]),IC50 (IEC6 cells; [4]),IC50 [1],GI50 (LNCap cells; [6]),IC50 (IEC6 cells; [8]),further results
"CCc1c2c(nc3ccc(OC(=O)N4CCN(CCCCCCN(C)c5ccc([C@H]6C[C@@]7(C)[C@@H](CC[C@]7(OC(C)=O)C(C)=O)[C@@H]7CCC8=CC(=O)CCC8=C76)cc5)CC4)cc13)-c1cc3c(c(=O)n1C2)COC(=O)[C@]3(O)CC [Compound 4, (S)-4,11-diethyl-4-hydroxy-3,14-dioxo-3,4,12,14-tetrahydro-1H-pyrano[3′,4′:6,7]indolizino[1,2-b]quinolin-9-yl 4-(6-((4-((8S,11R,13S,14S,17R)-17-acetoxy-17-acetyl-13-methyl-3-oxo-2,3,6,7,8,11,12,13,14,15,16,17-dodecahydro-1H-cyclopenta[a]phenanthren-11-yl)phenyl)(methyl)amino)hexyl)piperazine-1-carboxylate]",10 to 500 nM,10 to 500 nM,–,–,–,–,–
"CC[C@@]1(O)C(=O)OCc2c1cc1n(c2=O)Cc2cc3c(CN(C)C)c(OCCCCCOc4ccc(C(=O)N[C@H]5CC[C@H](Oc6ccc(C#N)c(Cl)c6)CC5)cc4)ccc3nc2-1 [Compound 7, N-((1r,4r)-4-(3-Chloro-4-cyanophenoxy)cyclohexyl)-4-((5-(((S)-10-((dimethylamino)methyl)-4-ethyl-4-hydroxy-3,14-dioxo-3,4,12,14-tetrahydro-1H-pyrano[3′,4′:6,7]indolizino[1,2-b]quinolin-9-yl)oxy)pentyl)oxy)benzamide]",–,–,501 to 1000 nM,10 to 500 nM,10 to 500 nM,–,GI50 (22Rv1 cells; [5]): 10 to 500 nM; IC50 (AR; [7]): > 1000 nM
"CC[C@@]1(O)C(=O)OCc2c1cc1n(c2=O)Cc2cc3c(CN(C)C)c(OC4CCN(CCCCCCN(C)c5ccc([C@H]6C[C@@]7(C)C(CC[C@]7(OC(C)=O)C(C)=O)C7CCC8=CC(=O)CCC8=C76)cc5)CC4)ccc3nc2-1 (stereo partly drawn) [Compound 9, (11R,13S,17R)-17-Acetyl-11-(4-((6-(4-(((S)-10-((dimethylamino)methyl)-4-ethyl-4-hydroxy-3,14-dioxo-3,4,12,14-tetrahydro-1H-pyrano[3′,4′:6,7]indolizino[1,2-b]quinolin-9-yl)oxy)piperidin-1-yl)hexyl)(methyl)amino)phenyl)-13-methyl-3-oxo-2,3,6,7,8,11,12,13,14,15,16,17-dodecahydro-1H-cyclopenta[a]phenanthren-17-yl acetate]",–,–,> 1000 nM,> 1000 nM,501 to 1000 nM,–,"GI50 (T47D cells; T47D cells, 6 days, CellTiterGlo, read-out: T47D (GI50)): 10 to 500 nM; IC50 (AR; [7]): 10 to 500 nM"
"CC[C@@]1(O)C(=O)OCc2c1cc1n(c2=O)Cc2cc3c(CN(C)C)c(OC4CCN(CCCCCCCN(C)c5ccc([C@H]6C[C@@]7(C)C(CC[C@]7(OC(C)=O)C(C)=O)C7CCC8=CC(=O)CCC8=C76)cc5)CC4)ccc3nc2-1 (stereo partly drawn) [Compound 10, (11R,13S,17R)-17-Acetyl-11-(4-((7-(4-(((S)-10-((dimethylamino)methyl)-4-ethyl-4-hydroxy-3,14-dioxo-3,4,12,14-tetrahydro-1H-pyrano[3′,4′:6,7]indolizino[1,2-b]quinolin-9-yl)oxy)piperidin-1-yl)heptyl)(methyl)amino)phenyl)-13-methyl-3-oxo-2,3,6,7,8,11,12,13,14,15,16,17-dodecahydro-1H-cyclopenta[a]phenanthren-17-yl-acetate]",10 to 500 nM,10 to 500 nM,–,> 1000 nM,–,–,IC50 (AR): 10 to 500 nM
"CC[C@@]1(O)C(=O)OCc2c1cc1n(c2=O)Cc2cc3c(CN(C)C)c(OC(=O)N4C5CCC4CN(CCCCCCN(C)c4ccc([C@H]6C[C@@]7(C)[C@@H](CC[C@]7(OC(C)=O)C(C)=O)[C@@H]7CCC8=CC(=O)CCC8=C76)cc4)C5)ccc3nc2-1 [Compound 22, (S)-10-((Dimethylamino)methyl)-4-ethyl-4-hydroxy-3,14-dioxo-3,4,12,14-tetrahydro-1H-pyrano[3′,4′:6,7]indolizino[1,2-b]quinolin-9-yl 3-(6-((4-((8S,11R,13S,14S,17R)-17-acetoxy-17-acetyl-13-methyl-3-oxo-2,3,6,7,8,11,12,13,14,15,16,17-dodecahydro-1H-cyclopenta[a]phenanthren-11-yl)phenyl)(methyl)amino)hexyl)-3,8-diazabicyclo[3.2.1]octane-8-carboxylate]",10 to 500 nM,10 to 500 nM,–,–,–,10 to 500 nM,–
"CC[C@@]1(O)C(=O)OCc2c1cc1n(c2=O)Cc2cc3c(CN(C)C)c(OC(=O)N4C[C@@H](C)N(CCCCCCN(C)c5ccc([C@H]6C[C@@]7(C)[C@@H](CC[C@]7(OC(C)=O)C(C)=O)[C@@H]7CCC8=CC(=O)CCC8=C76)cc5)C[C@@H]4C)ccc3nc2-1 [Compound 23, (S)-10-((Dimethylamino)methyl)-4-ethyl-4-hydroxy-3,14-dioxo-3,4,12,14-tetrahydro-1H-pyrano[3′,4′:6,7]indolizino[1,2-b]quinolin-9-yl (2S,5R)-4-(6-((4-((8S,11R,13S,14S,17R)-17-acetoxy-17-acetyl-13-methyl-3-oxo-2,3,6,7,8,11,12,13,14,15,16,17-dodecahydro-1H-cyclopenta[a]phenanthren-11-yl)phenyl)(methyl)amino)hexyl)-2,5-dimethylpiperazine-1-carboxylate]",10 to 500 nM,501 to 1000 nM,–,–,–,10 to 500 nM,–
"CC[C@@]1(O)C(=O)OCc2c1cc1n(c2=O)Cc2cc3c(CN(C)C)c(OC(=O)N4C[C@H](C)N(CCCCCCN(C)c5ccc([C@H]6C[C@@]7(C)[C@@H](CC[C@]7(OC(C)=O)C(C)=O)[C@@H]7CCC8=CC(=O)CCC8=C76)cc5)C[C@H]4C)ccc3nc2-1 [Compound 24, (S)-10-((Dimethylamino)methyl)-4-ethyl-4-hydroxy-3,14-dioxo-3,4,12,14-tetrahydro-1H-pyrano[3′,4′:6,7]indolizino[1,2-b]quinolin-9-yl (2R,5S)-4-(6-((4-((8S,11R,13S,14S,17R)-17-acetoxy-17-acetyl-13-methyl-3-oxo-2,3,6,7,8,11,12,13,14,15,16,17-dodecahydro-1H-cyclopenta[a]phenanthren-11-yl)phenyl)(methyl)amino)hexyl)-2,5-dimethylpiperazine-1-carboxylate]",10 to 500 nM,10 to 500 nM,–,–,–,501 to 1000 nM,–
"CC[C@@]1(O)C(=O)OCc2c1cc1n(c2=O)Cc2cc3c(CN(C)C(=O)CO[C@H]4CC[C@H]5[C@@H]6CC[C@H]7CC(=O)CC[C@]7(C)[C@H]6CC[C@]45C)c(O)ccc3nc2-1 [Compound 25, 2-(((5S,8R,9S,10S,13S,14S,17S)-10,13-Dimethyl-3-oxohexadecahydro-1H-cyclopenta[a]phenanthren-17-yl)oxy)-N—(((S)-4-ethyl-4,9-dihydroxy-3,14-dioxo-3,4,12,14-tetrahydro-1H-pyrano[3′,4′:6,7]indolizino[1,2-b]quinolin-10-yl)methyl)-N-methylacetamide]",–,–,> 1000 nM,–,10 to 500 nM,–,GI50 (22Rv1 cells; [5]): 10 to 500 nM
"CC[C@@]1(O)C(=O)OCc2c1cc1n(c2=O)Cc2cc3c(CN(C)C)c(OC(=O)N4CCN(C(=O)C5CCN(c6ccc(C(=O)N[C@H]7CC[C@H](Oc8ccc(C#N)c(Cl)c8)CC7)nn6)CC5)CC4)ccc3nc2-1 [Compound 26, (S)-10-((Dimethylamino)methyl)-4-ethyl-4-hydroxy-3,14-dioxo-3,4,12,14-tetrahydro-1H-pyrano[3′,4′:6,7]indolizino[1,2-b]quinolin-9-yl 4-(1-(6-(((1r,4r)-4-(3-chloro-4-cyanophenoxy)cyclohexyl)carbamoyl)pyridazin-3-yl)piperidine-4-carbonyl)piperazine-1-carboxylate]",–,10 to 500 nM,–,–,–,> 1000 nM,"GI50 (22Rv1 cells; 22Rv1, 144 h, read-out: 22RV1 (GI50, nM)): 10 to 500 nM"
